Reference: patent publication US20060069132A1, “Azolecarboxamide herbicides” (priority 2004, published 2006)

Experiments:
[1] = system: blackgrass; test: Test B postemergence herbicide test; assay type: in vivo, Alopecurus myosuroides
How it was run: (§1)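 Paddy species grown to the 2-leaf stage under flooding; blackgrass sprayed postemergence at 2–18 cm (1- to 4-leaf stage). Plants kept in a greenhouse for 13 to 15 days, then visually rated against controls on 0 (no effect) to 100 (complete control).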

[2] = system: ducksalad; test: Test B flooded paddy test; assay type: in vivo, Heteranthera limosa; conditions: 1000 g ai/ha, scale 0 to 100 (0 no effect, 100 complete control)
How it was run: as §1

[3] = system: cocklebur; test: Test B pre-/postemergence herbicide test; assay type: in vivo, Xanthium strumarium; conditions: for Plant response rating (0 to 100 scale), Cocklebur: 0 is no effect, preemergence
How it was run: (§2)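 Test chemicals in a non-phytotoxic solvent mixture with surfactant were applied preemergence to seeded species and postemergence to plants 2-18 cm tall (1- to 4-leaf stage); rice and barnyardgrass were also tested in a flooded paddy at the 2-leaf stage. Visual rating versus controls after 13-15 days in greenhouse, scale 0 (no effect) to 100 (complete control).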

[4] = system: corn; test: Test B pre-/postemergence herbicide test; assay type: in vivo, Zea mays; conditions: for Plant response rating (0 to 100 scale), Corn: 0 is no effect, preemergence
How it was run: (§3)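 Evaluation is visual, comparing treated with control plants on a scale where 0 means no effect and 100 means full control. Treatments were preemergence, or postemergence on seedlings 2–18 cm tall, and held 13–15 days in the greenhouse.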

[5] = system: rice; test: Test B flooded paddy test; assay type: in vivo, Oryza sativa; conditions: 1000 g ai/ha, scale 0 to 100 (0 no effect, 100 complete control)
How it was run: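 Each value is a visual 0–100 response rating taken against controls 13 to 15 days after treatment in the greenhouse. Plants received formulated chemical postemergence at the 1- to 4-leaf stage or, in flooded paddy, at the 2-leaf stage.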

[6] = system: smallflower umbrella sedge; test: Test C flooded paddy test; assay type: in vivo, Cyperus difformis; conditions: for Plant response rating, Sedge, Umbrella: 500 g ai/ha, visual rating after 12 to 14 days
[7] = system: giant foxtail; test: Test B pre-/postemergence herbicide test; assay type: in vivo, Setaria faberi; conditions: for Plant response rating (0 to 100 scale), Foxtail, Giant: 0 is no effect, preemergence
How it was run: as §3

[8] = system: rice; test: Test C flooded paddy test; assay type: in vivo, Oryza sativa; conditions: for Plant response rating, Rice: 500 g ai/ha, visual rating after 12 to 14 days
How it was run: (§4)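 Postemergence sprays applied to plants 2 to 18 cm tall (1- to 4-leaf stage); paddy species grown to 2-leaf stage under flooding. After 12 to 14 days in greenhouse, visual rating versus untreated controls on 0–100 scale (0 no effect, 100 complete control).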

[9] = system: morningglory; test: Test B pre-/postemergence herbicide test; assay type: in vivo, Ipomoea coccinea; conditions: for Plant response rating (0 to 100 scale), Morningglory: 0 is no effect, 100 is complete control, preemergence; for Morningglory plant response rating: scale 0 (no effect) to 100 (complete control)
How it was run: as §2

[10] = system: wild oat; test: Test B postemergence herbicide test; assay type: in vivo, Avena fatua; conditions: scale 0 (no effect) to 100 (complete control)
How it was run: (§5)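 Postemergence plants were sprayed with formulated test chemicals at 2 to 18 cm height (1- to 4-leaf stage); paddy species were grown to the 2-leaf stage. After 13 to 15 days in a greenhouse, injury was rated visually against untreated controls on a 0–100 scale (0 = no effect, 100 = complete control).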

[11] = system: large crabgrass; test: Test B pre-/postemergence herbicide test; assay type: in vivo, Digitaria sanguinalis; conditions: for Plant response rating (0 to 100 scale), Crabgrass, Large: 0 is no effect, preemergence
How it was run: as §3

[12] = system: barnyardgrass; test: Test C flooded paddy test; assay type: in vivo, Echinochloa crus-galli; conditions: for Plant response rating, Barnyardgrass: 500 g ai/ha, visual rating after 12 to 14 days
How it was run: as §4

[13] = system: velvetleaf; test: Test B pre-/postemergence herbicide test; assay type: in vivo, Abutilon theophrasti; conditions: for Plant response rating (0 to 100 scale), Velvetleaf: 0 is no effect, 100 is complete control, preemergence; for Velvetleaf plant response rating: scale 0 (no effect) to 100 (complete control)
How it was run: as §3

[14] = system: Surinam grass; test: Test B pre-/postemergence herbicide test; assay type: in vivo, Urochloa decumbens; conditions: for Plant response rating (0 to 100 scale), Surinam Grass: 0 is no effect, 100 is complete control, preemergence; for Surinam Grass plant response rating: scale 0 (no effect) to 100 (complete control)
How it was run: as §3

[15] = system: barnyardgrass; test: Test B flooded paddy test; assay type: in vivo, Echinochloa crus-galli; conditions: 1000 g ai/ha, scale 0 to 100 (0 no effect, 100 complete control)
How it was run: as §1

[16] = system: lambsquarters; test: Test B pre-/postemergence herbicide test; assay type: in vivo, Chenopodium album; conditions: for Plant response rating (0 to 100 scale), Lambsquarters: 0 is no effect, 100 is complete control, preemergence; for Lambsquarters plant response rating: scale 0 (no effect) to 100 (complete control)
How it was run: as §3

[17] = system: small flower umbrella sedge; test: Test B flooded paddy test; assay type: in vivo, Cyperus difformis; conditions: 1000 g ai/ha, scale 0 to 100 (0 no effect, 100 complete control)
How it was run: as §1

[18] = system: wheat; test: Test B postemergence herbicide test; assay type: in vivo, Triticum aestivum; parameters: key to Wheat plant response rating: 0 = no effect, 100 = complete control
How it was run: as §5

[19] = system: barnyardgrass; test: Test B pre-/postemergence herbicide test; assay type: in vivo, Echinochloa crus-galli; conditions: for Plant response rating (0 to 100 scale), Barnyardgrass: 0 is no effect, preemergence
How it was run: as §2

[20] = system: ducksalad; test: Test C flooded paddy test; assay type: in vivo, Heteranthera limosa; conditions: for Plant response rating, Ducksalad: 500 g ai/ha, visual rating after 12 to 14 days
[21] = system: pigweed; test: Test B pre-/postemergence herbicide test; assay type: in vivo, Amaranthus retroflexus; conditions: for Plant response rating (0 to 100 scale), Pigweed: 0 is no effect, 100 is complete control, preemergence; for Pigweed plant response rating: scale 0 (no effect) to 100 (complete control)
How it was run: as §3

[22] = 125 g ai/ha, visual rating, scale 0 (no effect) to 100 (complete control), postemergence
[23] = postemergence, 500 g ai/ha, scale 0 to 100, 0 is no effect, 100 is complete control
[24] = 125 g ai/ha, 100 is complete control
[25] = 125 g ai/ha, scale 0 to 100 (0 no effect, 100 complete control)
[26] = 250 g ai/ha, scale of 0 to 100, 0 is no effect, 100 is complete control
[27] = scale 0 to 100 (0 no effect, 100 complete control)
[28] = 125 g ai/ha, visual rating, postemergence
[29] = 62 g ai/ha, scale 0 to 100 (0 no effect, 100 complete control)
[30] = 500 g ai/ha, scale 0 to 100, 0 no effect, 100 complete control, preemergence
[31] = Postemergence, 500 g ai/ha, scale 0 (no effect) to 100 (complete control)

CCc1nn(C(C)(C)C)nc1C(=O)Nc1cc(C(=O)N(C)CC)ccc1F [Compound 388]
10: Cocklebur plant response rating [3, 22] | Corn plant response rating [4, 22] | Foxtail, Giant plant response rating [7, 22] | Morningglory plant response rating [9, 28] | Oat, Wild plant response rating ([10]; Postemergence, 500 g ai/ha) | Barnyardgrass plant response rating [12, 25] | Plant response rating (0 to 100 scale), Velvetleaf ([13]; 125 g ai/ha) | Surinam Grass plant response rating [14, 28] | Wheat plant response rating [18, 31] | Barnyardgrass plant response rating [19, 23]
30: Plant response rating (0 to 100 scale), Corn [4, 24] | Foxtail, Giant plant response rating [7, 23]
0: Blackgrass plant response rating [1, 22] | Plant response rating (0 to 100 scale), Cocklebur [3, 24] | Plant response rating (0 to 100 scale), Morningglory ([9]; 125 g ai/ha) | Oat, Wild plant response rating [10, 28] | Barnyardgrass plant response rating [12, 29] | Wheat plant response rating [18, 22] | Barnyardgrass plant response rating [19, 22] | Ducksalad plant response rating ([20]; 62 g ai/ha, scale 0 to 100) | Ducksalad plant response rating [20, 25]
35: Barnyardgrass plant response rating [12, 26]
45: Ducksalad plant response rating [20, 26]
40: Velvetleaf plant response rating ([13]; Postemergence, 500 g ai/ha) | Pigweed plant response rating [21, 28]
60: Lambsquarters plant response rating [16, 28]
75: Sedge, Umbrella plant response rating [6, 26]
55: Rice plant response rating [8, 25]
80: Ducksalad plant response rating [2] | Plant response rating, Sedge, Umbrella [6, 27] | Plant response rating (0 to 100 scale), Crabgrass, Large [11, 24] | Plant response rating, Ducksalad [20, 27] | Plant response rating (0 to 100 scale), Pigweed ([21]; 125 g ai/ha)
15: Rice plant response rating ([8]; 62 g ai/ha, scale 0 to 100)
20: Blackgrass plant response rating [1, 23] | Cocklebur plant response rating [3, 23] | Corn plant response rating [4, 23] | Plant response rating (0 to 100 scale), Foxtail, Giant [7, 24] | Crabgrass, Large plant response rating [11, 22] | Crabgrass, Large plant response rating [11, 23] | Velvetleaf plant response rating [13, 28] | Plant response rating (0 to 100 scale), Surinam Grass ([14]; 125 g ai/ha) | Surinam Grass plant response rating ([14]; Postemergence, 500 g ai/ha)
90: Plant response rating (0 to 100 scale), Lambsquarters ([16]; 125 g ai/ha) | Wheat plant response rating [18, 30]
70: Rice plant response rating [5] | Sedge, Umbrella plant response rating [6, 25] | Plant response rating, Rice [8, 27] | Barnyardgrass plant response rating [15] | Lambsquarters plant response rating ([16]; Postemergence, 500 g ai/ha) | Sedge, Umbrella plant response rating [17]
65: Sedge, Umbrella plant response rating ([6]; 62 g ai/ha, scale 0 to 100) | Rice plant response rating [8, 26] | Plant response rating, Barnyardgrass [12, 27]
50: Morningglory plant response rating ([9]; Postemergence, 500 g ai/ha) | Plant response rating (0 to 100 scale), Barnyardgrass [19, 24] | Pigweed plant response rating ([21]; Postemergence, 500 g ai/ha)

CCNC(=O)c1cccc(NC(=O)c2nn(C(C)C)nc2C)c1 [Compound 405]
0: Blackgrass plant response rating [1, 22] | Plant response rating (0 to 100 scale), Cocklebur [3, 24] | Plant response rating (0 to 100 scale), Corn [4, 24] | Plant response rating (0 to 100 scale), Foxtail, Giant [7, 24] | Foxtail, Giant plant response rating [7, 22] | Rice plant response rating ([8]; 62 g ai/ha, scale 0 to 100) | Rice plant response rating [8, 25] | Rice plant response rating [8, 26] | Oat, Wild plant response rating [10, 28] | Barnyardgrass plant response rating [12, 29] | Barnyardgrass plant response rating [12, 25] | Barnyardgrass plant response rating [12, 26] | Plant response rating (0 to 100 scale), Velvetleaf ([13]; 125 g ai/ha) | Plant response rating (0 to 100 scale), Surinam Grass ([14]; 125 g ai/ha) | Surinam Grass plant response rating [14, 28] | Wheat plant response rating [18, 22] | Wheat plant response rating [18, 31] | Ducksalad plant response rating ([20]; 62 g ai/ha, scale 0 to 100) | Ducksalad plant response rating [20, 25]
40: Sedge, Umbrella plant response rating ([6]; 62 g ai/ha, scale 0 to 100) | Barnyardgrass plant response rating [15]
10: Blackgrass plant response rating [1, 31] | Cocklebur plant response rating [3, 22] | Corn plant response rating [4, 22] | Corn plant response rating [4, 31] | Oat, Wild plant response rating ([10]; Postemergence, 500 g ai/ha) | Crabgrass, Large plant response rating [11, 22] | Velvetleaf plant response rating [13, 28] | Surinam Grass plant response rating ([14]; Postemergence, 500 g ai/ha) | Plant response rating (0 to 100 scale), Barnyardgrass [19, 24] | Barnyardgrass plant response rating [19, 22] | Barnyardgrass plant response rating [19, 31] | Plant response rating (0 to 100 scale), Pigweed ([21]; 125 g ai/ha)
90: Sedge, Umbrella plant response rating [17]
20: Cocklebur plant response rating [3, 31] | Foxtail, Giant plant response rating [7, 31] | Plant response rating, Rice [8, 27] | Morningglory plant response rating [9, 28] | Crabgrass, Large plant response rating [11, 31] | Plant response rating, Barnyardgrass [12, 27] | Wheat plant response rating [18, 30] | Ducksalad plant response rating [20, 26]
30: Plant response rating (0 to 100 scale), Morningglory ([9]; 125 g ai/ha) | Plant response rating (0 to 100 scale), Crabgrass, Large [11, 24] | Velvetleaf plant response rating ([13]; Postemergence, 500 g ai/ha) | Plant response rating, Ducksalad [20, 27] | Pigweed plant response rating [21, 28]
60: Morningglory plant response rating ([9]; Postemergence, 500 g ai/ha)
80: Ducksalad plant response rating [2]
50: Rice plant response rating [5] | Sedge, Umbrella plant response rating [6, 25] | Lambsquarters plant response rating [16, 28] | Pigweed plant response rating ([21]; Postemergence, 500 g ai/ha)
70: Sedge, Umbrella plant response rating [6, 26] | Plant response rating, Sedge, Umbrella [6, 27] | Plant response rating (0 to 100 scale), Lambsquarters ([16]; 125 g ai/ha) | Lambsquarters plant response rating ([16]; Postemergence, 500 g ai/ha)
